In assay [1] the test system is skin of human volunteers. In words: Skin oxygen / CO2 content by transcutaneous monitor after topical application. The assay is classed as in vivo. The protocol: To examine this issue, the oxygen content of skin to which the octyl ester discussed supra was determined directly, using a transcutaneous oxygen monitor. The 1% formulation of the octyl ester was applied to skin for 30 minutes. After this thirty minute period, the skin was cleaned with soap and water, wiped with an alcohol swab, and a drop of deionized water was placed on the sensor surface before its attachment to the anterior surface of the volunteers' forearms. The transcutaneous values were recorded constantly, and stored by the instrument. The monitor measures relative oxygen content, because the temperature at which the monitor operates does impact the oxygen permeability of the stratum corneum. See, e.g., Martin, Resp. […] The sensor was calibrated at 4 hour intervals, or whenever the sensor temperature was changed.
The monitor was operated at a temperature of 40° C. Values are given for both a control, and the formulation described herein.
In a follow-up experiment, the monitor was operated at 38° C., and both O2 and CO2 were measured, with a combined transcutaneous oxygen and CO2 monitor. […] The control is represented by the dotted line.
Parallel experiments were carried out using 0.1% octyl niacin ester lotion, and a lotion containing octyl niacin ester (0.1%), and 0.1% butyl benzoate.
Oxygen content was measured in the same way as is described, supra, or using other techniques known to the art.

The subject of assay [2] is skin of human volunteers. Nature of the assay: Visual observation of vasodilation (blushing) after topical application of lotion to forearm. The assay is classed as in vivo. The following applies: for Vasodilation at 0.1%: 0.1% in skin lotion; for Vasodilation at 0.1% / Vasodilation at 1.0%: anterior forearm, visual blushing; for Vasodilation at 1.0%: 1.0% in skin lotion. Here is the method:
This example details the first of two sets of experiments designed to determine the vasodilation effect of alkyl niacin esters. Formulations were prepared by combining the alkyl esters referred to supra in a skin lotion, at 0.1% and 1.0% concentrations. The lotions were applied topically to the skin of human volunteers on the anterior surface of a forearm. Vasodilation was observed visually, i.e., by observing blushing at the site of application, or lack thereof. Both onset and duration of vasodilation were measured.

[3] abbreviates: monitor at 38° C., versus control, FIG. 3.

Experimental findings from US6924299B2, “Methods and compositions useful in enhancing oxygen delivery to cells” (University of Kentucky Research Foundation, priority 2000, dated 2005) are described below.

Each structure is given as a SMILES string.

`CCCCCCCCOC(=O)c1cccnc1` [8 carbons, Octyl niacin]: the “Skin oxygen content (transcutaneous oxygen monitor)” value with skin of human volunteers [1] (1% formulation applied 30 minutes, monitor at 40° C., versus control, FIG. 2) is “sustained increase in skin oxygen”. Besides, in the assay with skin of human volunteers [1] (setting [3]), the “Skin CO2 content (combined transcutaneous oxygen and CO2 monitor)” value is recorded as “decrease in CO2 content”; the “Skin oxygen content (combined transcutaneous oxygen and CO2 monitor)” value was “sustained increase in skin oxygen content”. In addition, in the assay on skin of human volunteers [2], the “Vasodilation at 0.1%” value is “Yes” and the “Vasodilation at 1.0%” value was “Yes”. For the same molecule, the “Vasodilation Effect at 0.1%: Duration” value in the assay with skin of human volunteers [2] (0.1% lotion, visual determination, listed as C8) was “longest effect”.
As for `CCCCCCCCCCCCCCCCCCOC(=O)c1cccnc1` [18 carbons], in the assay with skin of human volunteers [2], the “Vasodilation at 0.1%” value is given as “No” and the “Vasodilation at 1.0%” value is “No”.
Turning to `CCCCCCCCCCCCCCCOC(=O)c1cccnc1` [15 carbons], in the assay on skin of human volunteers [2], the “Vasodilation at 0.1%” value is on record as “No” and the “Vasodilation at 1.0%” value is given as “No”.
As for `CCCCCCCCCCCCCCOC(=O)c1cccnc1` [14 carbons], in the assay with skin of human volunteers [2], the “Vasodilation at 0.1%” value is reported as “No” and the “Vasodilation at 1.0%” value is “No”.
`CCCCCCCCCCCCCOC(=O)c1cccnc1` [13 carbons]: in the assay on skin of human volunteers [2], the “Vasodilation at 0.1%” value is listed as “No” and the “Vasodilation at 1.0%” value was “No”.
As for `CCOC(=O)c1cccnc1` [2 carbons, Ethyl niacin], in the assay on skin of human volunteers [2], the “Vasodilation at 0.1%” value is reported as “Yes” and the “Vasodilation at 1.0%” value is “Yes”. In addition, the “Vasodilation Effect at 0.1%: Onset” value in the assay with skin of human volunteers [2] (0.1% lotion, visual determination) was 5 to 10 min.
In the case of `CCCCCCOC(=O)c1cccnc1` [6 carbons, Hexyl niacin], in the assay with skin of human volunteers [2], the “Vasodilation at 0.1%” value is “Yes” and the “Vasodilation at 1.0%” value is reported as “Yes”.
As to `CCCCCCCCCCCOC(=O)c1cccnc1` [11 carbons], in the assay on skin of human volunteers [2], the “Vasodilation at 0.1%” value is recorded as “No” and the “Vasodilation at 1.0%” value was “Slight”.
For `CCCCOC(=O)c1ccccc1` [Butyl benzoate, reference compound], the “Effect on the increase in skin oxygen content caused by octyl niacin ester” value in the assay on skin of human volunteers [1] (lotion with 0.1% octyl niacin ester plus 0.1% butyl benzoate versus 0.1% octyl niacin ester lotion alone, FIG. 4) was “blocked the increase in oxygen content”.
In the case of `CCCCCCCCCCCCCCCCOC(=O)c1cccnc1` [16 carbons], in the assay on skin of human volunteers [2], the “Vasodilation at 0.1%” value is listed as “No” and the “Vasodilation at 1.0%” value was “No”.
On to `CCCCCCCCCOC(=O)c1cccnc1` [9 carbons], for which, in the assay on skin of human volunteers [2], the “Vasodilation at 0.1%” value is reported as “No” and the “Vasodilation at 1.0%” value was “Yes”. The “Vasodilation at 1.0%” value with skin of human volunteers [2] (listed as C9) is listed as “caused vasodilation”.
With `CCCCCCCCCCOC(=O)c1cccnc1` [10 carbons], in the assay on skin of human volunteers [2], the “Vasodilation at 0.1%” value is “No” and the “Vasodilation at 1.0%” value is “Yes”. In addition, the “Vasodilation at 1.0%” value in the assay with skin of human volunteers [2] (listed as C10) was “caused vasodilation”.
Consider `CCCCOC(=O)c1cccnc1` [4 carbons], for which, in the assay on skin of human volunteers [2], the “Vasodilation at 0.1%” value was “Yes” and the “Vasodilation at 1.0%” value was “Yes”.
With `COC(=O)c1cccnc1` [1 carbon], in the assay on skin of human volunteers [2], the “Vasodilation at 0.1%” value was “Yes” and the “Vasodilation at 1.0%” value is “Yes”.
As to `CCCCCCCCCCCCOC(=O)c1cccnc1` [12 carbons], in the assay on skin of human volunteers [2], the “Vasodilation at 0.1%” value was “No” and the “Vasodilation at 1.0%” value was “No”.
